Reference: ChEMBL document CHEMBL4842364 (J Med Chem, 2021)
Activity calls are given as the source filed them. No cut-off for these calls is given here.

Key:
[1] = Efflux ratio of permeability from basolateral to apical side over apical to basolateral side in human Caco-2 cells; format: ADME, cell-based
[2] = Clearance in Beagle dog at 3 mg/kg, iv measured upto 24 hrs by LC-MS/MS analysis; format: ADME, organism-based, Canis lupus familiaris; details: in vivo
[3] = Permeability of the compound across basolateral to apical side in human Caco-2 cells; format: ADME, cell-based; details: read-out: permeability
[4] = molecular target: T1, Mitogen-activated protein kinase kinase kinase 19 (Homo sapiens) (UniProt Q56UN5); experiment: Inhibition of YSK4 (unknown origin) at 1 uM relative to control
T1 sequence (whole entry): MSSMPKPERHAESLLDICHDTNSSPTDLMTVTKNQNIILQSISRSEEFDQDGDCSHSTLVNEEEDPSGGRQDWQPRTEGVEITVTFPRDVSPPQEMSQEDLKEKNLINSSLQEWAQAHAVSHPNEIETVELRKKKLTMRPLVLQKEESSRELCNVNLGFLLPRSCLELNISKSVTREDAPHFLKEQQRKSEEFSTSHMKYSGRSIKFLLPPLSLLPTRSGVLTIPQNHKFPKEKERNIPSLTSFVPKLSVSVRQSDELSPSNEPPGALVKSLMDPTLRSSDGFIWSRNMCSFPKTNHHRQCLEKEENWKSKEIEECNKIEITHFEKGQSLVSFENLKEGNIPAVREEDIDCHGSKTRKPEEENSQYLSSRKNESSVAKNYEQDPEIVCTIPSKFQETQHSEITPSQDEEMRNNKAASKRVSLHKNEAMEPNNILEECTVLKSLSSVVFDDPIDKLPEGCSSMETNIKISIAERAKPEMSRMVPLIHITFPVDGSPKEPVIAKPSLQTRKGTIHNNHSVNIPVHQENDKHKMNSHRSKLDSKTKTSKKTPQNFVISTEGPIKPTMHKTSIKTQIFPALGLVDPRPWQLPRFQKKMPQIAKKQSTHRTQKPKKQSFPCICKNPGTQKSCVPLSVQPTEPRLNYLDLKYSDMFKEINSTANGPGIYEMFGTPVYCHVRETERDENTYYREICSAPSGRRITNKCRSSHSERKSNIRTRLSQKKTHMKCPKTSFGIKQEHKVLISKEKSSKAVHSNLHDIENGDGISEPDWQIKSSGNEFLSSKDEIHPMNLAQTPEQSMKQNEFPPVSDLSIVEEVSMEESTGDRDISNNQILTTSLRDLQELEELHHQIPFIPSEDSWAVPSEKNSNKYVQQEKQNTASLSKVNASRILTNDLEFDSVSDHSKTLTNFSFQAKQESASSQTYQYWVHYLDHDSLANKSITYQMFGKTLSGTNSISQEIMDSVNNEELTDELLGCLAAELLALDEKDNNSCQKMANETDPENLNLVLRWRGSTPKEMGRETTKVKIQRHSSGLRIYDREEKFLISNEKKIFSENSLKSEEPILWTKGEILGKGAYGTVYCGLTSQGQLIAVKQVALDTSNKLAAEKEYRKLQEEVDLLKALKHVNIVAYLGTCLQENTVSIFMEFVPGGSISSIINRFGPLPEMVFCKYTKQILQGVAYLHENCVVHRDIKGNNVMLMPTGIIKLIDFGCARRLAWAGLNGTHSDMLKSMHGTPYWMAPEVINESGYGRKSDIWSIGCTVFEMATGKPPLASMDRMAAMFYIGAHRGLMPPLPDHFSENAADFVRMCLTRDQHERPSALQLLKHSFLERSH

[5] = molecular target: T2, Serine/threonine-protein kinase PLK3 (Homo sapiens, UniProt Q9H4B4); experiment: Inhibition of PLK3 (unknown origin) at 1 uM relative to control
NCI-H23 = experiment: Antiproliferative activity against human NCI-H23 cells assessed as reduction in cell viability after 4 days by CellTiter-Glo assay; details: Homo sapiens, NCI-H23, 96 h
A-427 [6] = experiment: Antitumor activity against human A-427 cells xenografted in SCID mouse assessed as reduction in tumor growth at 80 mg/kg, po administered once daily for 28 days and measured twice per weeks; format: functional, organism-based; details: time 28.0 day
[7] = Volume of distribution at steady state in Beagle dog at 3 mg/kg, iv measured upto 24 hrs by LC-MS/MS analysis; format: ADME, organism-based, Canis lupus familiaris; details: in vivo, read-out: Vdss
[8] = Cmax in Beagle dog at 10 mg/kg, po measured upto 24 hrs by LC-MS/MS analysis; format: ADME, organism-based, Canis lupus familiaris; parameters: route oral, dose 10 mg/kg, time <=24; details: in vivo
[9] = molecular target: Tyrosine-protein kinase Lck (Homo sapiens) (UniProt P06239); experiment: Inhibition of LCK (unknown origin) at 1 uM relative to control
Chain of Tyrosine-protein kinase Lck (Homo sapiens) (P06239 2-509 limits assumed): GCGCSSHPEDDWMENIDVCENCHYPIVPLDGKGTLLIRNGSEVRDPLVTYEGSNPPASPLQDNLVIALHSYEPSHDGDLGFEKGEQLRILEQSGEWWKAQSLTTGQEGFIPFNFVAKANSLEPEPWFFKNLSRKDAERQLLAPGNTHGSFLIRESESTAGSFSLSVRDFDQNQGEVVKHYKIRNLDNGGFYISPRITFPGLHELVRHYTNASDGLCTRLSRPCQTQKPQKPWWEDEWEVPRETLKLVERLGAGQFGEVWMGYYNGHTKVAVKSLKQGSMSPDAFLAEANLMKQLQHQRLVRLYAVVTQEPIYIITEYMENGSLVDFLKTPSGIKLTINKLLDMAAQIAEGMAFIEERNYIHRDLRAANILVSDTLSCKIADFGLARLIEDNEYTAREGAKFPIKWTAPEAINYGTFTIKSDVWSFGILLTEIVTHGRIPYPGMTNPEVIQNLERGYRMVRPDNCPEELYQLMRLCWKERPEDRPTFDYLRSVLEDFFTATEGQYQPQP

[10] = Intrinsic clearance in human hepatocytes; format: ADME, cell-based, Hepatocyte; details: read-out: CLH
Wee1-like protein kinase = Wee1-like protein kinase (Homo sapiens, UniProt P30291)
Chain of Wee1-like protein kinase (P30291 whole entry): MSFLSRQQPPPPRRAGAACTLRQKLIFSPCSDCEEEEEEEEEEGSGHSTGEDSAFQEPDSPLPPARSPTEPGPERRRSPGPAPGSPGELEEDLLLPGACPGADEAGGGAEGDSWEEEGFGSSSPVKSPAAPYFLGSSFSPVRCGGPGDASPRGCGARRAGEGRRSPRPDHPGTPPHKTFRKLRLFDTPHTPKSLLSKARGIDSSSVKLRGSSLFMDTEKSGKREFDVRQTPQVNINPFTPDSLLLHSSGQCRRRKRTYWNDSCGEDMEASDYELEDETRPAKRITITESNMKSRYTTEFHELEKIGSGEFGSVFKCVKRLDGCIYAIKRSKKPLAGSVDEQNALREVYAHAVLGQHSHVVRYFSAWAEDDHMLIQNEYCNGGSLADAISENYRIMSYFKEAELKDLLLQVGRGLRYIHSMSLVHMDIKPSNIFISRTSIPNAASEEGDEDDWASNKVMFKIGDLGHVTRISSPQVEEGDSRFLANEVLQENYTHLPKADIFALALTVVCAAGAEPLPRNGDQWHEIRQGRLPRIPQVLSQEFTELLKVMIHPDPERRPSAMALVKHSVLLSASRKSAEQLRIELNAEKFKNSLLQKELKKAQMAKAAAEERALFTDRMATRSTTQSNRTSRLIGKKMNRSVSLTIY
Description: Displacement of Alexa Fluor labelled kinase tracer178 from WEE1 (unknown origin) incubated for 60 mins by FRET assay

[11] = molecular target: T2, Serine/threonine-protein kinase PLK3; experiment: Inhibition of PLK3 (unknown origin)
A-427 [12] = experiment: Antiproliferative activity against human A-427 cells assessed as reduction in cell viability after 3 days by CellTiter-Glo assay; format: functional, cell-based; details: A-427, 72 h
[13] = Plasma protein binding in human; format: ADME, cell-free; details: read-out: PPB (converted)
[14] = system: Epidermal growth factor receptor (Homo sapiens), P00533 [UNDEFINED MUTATION]; experiment: Inhibition of EGFR d747-749/A750P mutant (unknown origin) at 1 uM relative to control
Chain of Epidermal growth factor receptor (Homo sapiens), P00533 [UNDEFINED MUTATION] (P00533 whole entry, looked up, stated change not applied): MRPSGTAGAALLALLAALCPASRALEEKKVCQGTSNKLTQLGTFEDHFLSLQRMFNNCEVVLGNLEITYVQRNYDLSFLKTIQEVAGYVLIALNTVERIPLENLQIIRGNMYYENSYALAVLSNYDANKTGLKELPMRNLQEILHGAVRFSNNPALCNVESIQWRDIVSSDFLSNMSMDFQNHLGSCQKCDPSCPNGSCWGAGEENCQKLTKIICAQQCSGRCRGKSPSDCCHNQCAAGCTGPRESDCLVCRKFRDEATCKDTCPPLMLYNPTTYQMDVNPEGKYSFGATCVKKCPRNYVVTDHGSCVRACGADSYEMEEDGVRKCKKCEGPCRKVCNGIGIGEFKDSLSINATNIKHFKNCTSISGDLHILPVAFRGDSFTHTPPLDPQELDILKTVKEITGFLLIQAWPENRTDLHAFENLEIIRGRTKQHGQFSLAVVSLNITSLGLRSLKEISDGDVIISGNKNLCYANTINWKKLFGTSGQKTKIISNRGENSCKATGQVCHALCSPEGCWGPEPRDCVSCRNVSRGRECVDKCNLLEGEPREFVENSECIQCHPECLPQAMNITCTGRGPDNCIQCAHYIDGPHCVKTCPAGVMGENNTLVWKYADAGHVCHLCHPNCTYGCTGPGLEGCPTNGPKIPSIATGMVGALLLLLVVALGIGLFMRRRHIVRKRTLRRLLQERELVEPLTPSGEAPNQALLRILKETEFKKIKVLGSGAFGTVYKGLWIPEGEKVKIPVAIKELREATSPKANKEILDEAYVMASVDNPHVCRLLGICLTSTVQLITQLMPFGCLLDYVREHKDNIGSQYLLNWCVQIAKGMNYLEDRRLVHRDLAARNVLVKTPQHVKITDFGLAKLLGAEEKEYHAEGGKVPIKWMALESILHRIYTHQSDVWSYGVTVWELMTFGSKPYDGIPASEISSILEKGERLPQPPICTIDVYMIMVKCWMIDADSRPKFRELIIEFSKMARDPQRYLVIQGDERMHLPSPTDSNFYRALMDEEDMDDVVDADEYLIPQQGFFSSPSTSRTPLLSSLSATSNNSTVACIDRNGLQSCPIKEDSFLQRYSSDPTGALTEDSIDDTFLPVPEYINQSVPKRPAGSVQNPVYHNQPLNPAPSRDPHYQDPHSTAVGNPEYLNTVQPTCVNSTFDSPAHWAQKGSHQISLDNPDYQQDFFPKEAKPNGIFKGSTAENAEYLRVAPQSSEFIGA

[15] = Intrinsic clearance in mouse microsomes; format: ADME, Microsome
[16] = AUC in Beagle dog at 10 mg/kg, po measured upto 24 hrs by LC-MS/MS analysis; format: ADME, organism-based, Canis lupus familiaris; parameters: route oral, dose 10 mg/kg, time <=24; details: in vivo
[17] = Oral bioavailability in Beagle dog at 10 mg/kg measured upto 24 hrs by LC-MS/MS analysis; format: ADME, organism-based, Canis lupus familiaris; details: in vivo
[18] = Half life in Beagle dog at 10 mg/kg, po measured upto 24 hrs by LC-MS/MS analysis; format: ADME, organism-based, Canis lupus familiaris; details: in vivo
[19] = molecular target: Epidermal growth factor receptor (Homo sapiens, UniProt P00533, 747-749DEL/A750P); experiment: Inhibition of EGFR d747-749/A750P mutant (unknown origin)
Chain of Epidermal growth factor receptor (P00533 whole entry, looked up, stated change not applied): as above

[20] = molecular target: Serine/threonine-protein kinase PLK1 (Homo sapiens, UniProt P53350); experiment: Inhibition of PLK1 (unknown origin) at 1 uM relative to control
Chain of Serine/threonine-protein kinase PLK1 (P53350 whole entry): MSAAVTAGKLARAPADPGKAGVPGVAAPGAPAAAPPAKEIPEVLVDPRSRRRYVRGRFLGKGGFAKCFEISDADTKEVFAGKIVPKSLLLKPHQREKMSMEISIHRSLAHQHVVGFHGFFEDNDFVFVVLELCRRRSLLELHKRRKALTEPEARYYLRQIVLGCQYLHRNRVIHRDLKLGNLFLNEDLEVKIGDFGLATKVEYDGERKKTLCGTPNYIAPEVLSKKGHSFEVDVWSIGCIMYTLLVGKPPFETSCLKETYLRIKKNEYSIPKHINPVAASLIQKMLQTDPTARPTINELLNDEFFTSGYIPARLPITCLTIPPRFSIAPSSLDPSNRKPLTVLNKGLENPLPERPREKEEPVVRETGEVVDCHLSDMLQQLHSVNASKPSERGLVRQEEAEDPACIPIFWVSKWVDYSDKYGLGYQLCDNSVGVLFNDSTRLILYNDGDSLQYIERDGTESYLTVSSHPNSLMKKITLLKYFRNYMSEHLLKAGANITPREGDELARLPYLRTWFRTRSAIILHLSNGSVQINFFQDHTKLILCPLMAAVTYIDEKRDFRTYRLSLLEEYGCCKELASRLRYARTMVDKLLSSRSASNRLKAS

[21] = system: Epidermal growth factor receptor (Homo sapiens), P00533 [UNDEFINED MUTATION]; experiment: Inhibition of EGFR d746-750 mutant (unknown origin) at 1 uM relative to control
[22] = Intrinsic clearance in human microsomes; format: ADME, Microsome
[23] = AUC in mouse plasma at 80 mg/kg, po administered once daily for 28 days; format: ADME, organism-based; parameters: time 28 day, dose 80 mg/kg
[24] = Permeability of the compound across apical to basolateral side in human Caco-2 cells; format: ADME, cell-based; details: read-out: permeability
[25] = AUC(0 to 24 hrs) in mouse at 60 mg/kg, po; format: ADME, organism-based; parameters: time < 24 hr, route oral, dose 60 mg/kg; details: in vivo
[26] = molecular target: T3, Mitogen-activated protein kinase kinase kinase 19 (Homo sapiens, UniProt Q56UN5); experiment: Inhibition of YSK4 (unknown origin)
T3 sequence (Q56UN5 whole entry): T1 sequence (whole entry)

[27] = AUC in Beagle dog at 3 mg/kg, iv measured upto 24 hrs by LC-MS/MS analysis; format: ADME, organism-based, Canis lupus familiaris; parameters: route intravenous, dose 3 mg/kg, time <=24; details: in vivo
[28] = Octanol/buffer distribution coefficient, logD of the compound at pH 7.4; format: physicochemical
Cytochrome P450 3A4 = Cytochrome P450 3A4 (Homo sapiens, UniProt P08684); experiment: Inhibition of CYP3A4 (unknown origin); format: ADME
Chain of Cytochrome P450 3A4 (P08684 whole entry): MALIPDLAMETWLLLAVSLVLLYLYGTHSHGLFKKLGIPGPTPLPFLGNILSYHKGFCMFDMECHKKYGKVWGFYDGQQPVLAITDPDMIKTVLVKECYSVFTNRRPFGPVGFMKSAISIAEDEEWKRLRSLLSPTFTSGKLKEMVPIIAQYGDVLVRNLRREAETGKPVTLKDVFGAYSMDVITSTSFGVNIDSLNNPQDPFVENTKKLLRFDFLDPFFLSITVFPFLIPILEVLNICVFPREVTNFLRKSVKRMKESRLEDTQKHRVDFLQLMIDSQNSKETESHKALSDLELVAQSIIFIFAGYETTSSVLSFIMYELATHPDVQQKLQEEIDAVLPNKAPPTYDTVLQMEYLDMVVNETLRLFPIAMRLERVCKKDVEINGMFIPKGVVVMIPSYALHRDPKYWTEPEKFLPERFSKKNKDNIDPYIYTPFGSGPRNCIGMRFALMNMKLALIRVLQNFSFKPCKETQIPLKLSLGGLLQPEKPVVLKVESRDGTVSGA

Structure (SMILES): C=CCn1c(=O)c2cnc(Nc3ccc(N4CCN(C)CC4)cc3)nc2n1-c1ccc2c(n1)C(O)(CC)CC2 (racemic)
- efflux ratio [1]: 7
- clearance [2]: 46 mL/min/kg
- Papp B→A [3]: 25.5 ×10⁻⁶ cm/s
- inhibition [4]: > 90%
- inhibition [5]: > 90%
- IC50 (NCI-H23): 103 nM
- Activity (A-427 [6]): Active
- Vd [7]: 4.4 L/kg
- Cmax [8]: 2100 nM
- inhibition [9]: 75%
- CLint scaled [10]: < 18 mL/min/kg
- IC50 (Wee1-like protein kinase): 3.9 nM
- IC50 [11]: 70 nM
- IC50 (A-427 [12]): 75 nM
- fraction unbound [13]: 0.34
- inhibition [14]: > 90%
- CLint scaled [15]: 74 mL/min/kg
- AUC at 24 h [16]: 9.7 µM·h
- bioavailability [17]: 142%
- half-life [18]: 2.3 h
- IC50 [19]: 60 nM
- inhibition [20]: 75%
- inhibition [21]: 75%
- CLint scaled [22]: 40 mL/min/kg
- AUC at 672 h [23]: 45 µM·h
- Papp A→B [24]: 3.6 ×10⁻⁶ cm/s
- AUC(0-t) at 24 h [25]: 32 µM·h
- IC50 [26]: 59 nM
- AUC at 24 h [27]: 2.1 µM·h
- logD [28]: 2.4
- IC50 (Cytochrome P450 3A4): 7000 nM
